US20240150362A1, “Substituted Pyrrolotriazines” (Molecure S.A., priority 2022, published 2024)
Structures can show the parent of a compound that is named as a salt.

molecular target: T1, full-length USP7 (Homo sapiens, UniProt Q93009); assay: Enzymatic assay to determine % inhibition of USP7 activity at 1 μM test compound (Ubiquitin-Rhodamine 110 cleavage); assay type: biochemical; conditions: 1 μM of the test compound; given where IC50 has not been determined yet; mean of two repetitions
T1 construct: A 45 μl reaction volume containing full-length USP7 (0.5-1.0 nM)
T1 sequence (Q93009 whole entry): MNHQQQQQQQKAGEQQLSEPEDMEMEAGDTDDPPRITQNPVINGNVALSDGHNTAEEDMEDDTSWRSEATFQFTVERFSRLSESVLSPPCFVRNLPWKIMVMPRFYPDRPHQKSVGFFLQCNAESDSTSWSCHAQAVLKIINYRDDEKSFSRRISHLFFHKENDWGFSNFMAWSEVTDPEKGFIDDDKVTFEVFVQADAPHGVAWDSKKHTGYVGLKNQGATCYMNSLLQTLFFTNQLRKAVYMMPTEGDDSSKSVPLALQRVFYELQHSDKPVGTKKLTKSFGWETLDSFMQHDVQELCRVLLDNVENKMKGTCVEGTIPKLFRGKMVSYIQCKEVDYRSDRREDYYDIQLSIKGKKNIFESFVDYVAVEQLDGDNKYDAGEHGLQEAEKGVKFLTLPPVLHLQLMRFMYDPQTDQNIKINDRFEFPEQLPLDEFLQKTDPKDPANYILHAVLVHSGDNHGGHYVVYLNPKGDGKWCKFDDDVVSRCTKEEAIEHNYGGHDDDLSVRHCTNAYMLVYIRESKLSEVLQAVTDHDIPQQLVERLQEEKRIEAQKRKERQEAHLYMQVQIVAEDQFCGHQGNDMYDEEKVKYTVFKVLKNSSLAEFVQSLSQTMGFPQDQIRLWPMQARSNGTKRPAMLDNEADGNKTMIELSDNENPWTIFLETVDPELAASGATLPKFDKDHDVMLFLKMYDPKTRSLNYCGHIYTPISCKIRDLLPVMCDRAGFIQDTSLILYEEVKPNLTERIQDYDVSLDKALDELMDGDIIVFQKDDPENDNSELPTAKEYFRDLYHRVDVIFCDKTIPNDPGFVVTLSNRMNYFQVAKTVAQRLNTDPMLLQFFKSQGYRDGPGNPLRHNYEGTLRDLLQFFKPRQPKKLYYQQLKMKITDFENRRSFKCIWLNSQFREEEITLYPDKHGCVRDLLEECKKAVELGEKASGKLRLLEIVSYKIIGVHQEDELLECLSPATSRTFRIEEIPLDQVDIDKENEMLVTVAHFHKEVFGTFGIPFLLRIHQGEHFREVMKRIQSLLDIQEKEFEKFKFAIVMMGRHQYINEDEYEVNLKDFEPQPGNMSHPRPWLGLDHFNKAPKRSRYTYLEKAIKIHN
Method: Enzymatic Assay to Determine % Value of Inhibition […] Activity at 1 μM […]
A 45 μl reaction volume containing full-length USP7 (0.5-1.0 nM) in 50 mM HEPES pH 7.5, 150 mM NaCl, 2 mM DTT, 1 mg/ml BSA and 0.05% Tween20 (DUB assay buffer) was assembled in wells of 96 well half area black flat bottom plates. All test compounds were first dissolved to 30 mM stocks in DMSO and subsequently introduced to enzyme 15 min after USP7 incubation with DTT at room temperature. The final concentration of tested compounds was 1 μM. The enzymatic reaction was started by adding 0.5 μM Ubiquitin-Rhodamine 110 (final concentration) and allowed to proceed for 30-60 min at 25° C., 250 RPM shaking before Rhodamine fluorescence (485 nm excitation/535 nm emission) was measured using Tecan Spark M10 plate reader. Percentage of inhibition at 1 μM was determined by the mean of two repetitions for these concentrations using Microsoft Excel software.

Row | inhibition at 1 µM | SMILES
1 | 20 to 49% | Cc1cc(Cl)cc(-c2ncnn3cc(CN4C(=O)C5C(C4=O)C5(C)C)cc23)c1CC1CNCC(CF)O1 (single isomer, unassigned) [Example 43, 3-((4-(5-chloro-2-((6-(fluoromethyl)morpholin-2-yl)methyl)-3-methylphenyl)pyrrolo[2,1-f][1,2,4]triazin-6-yl)methyl)-6,6-dimethyl-3-azabicyclo[3.1.0]hexane-2,4-dione hydrochloride]
2 | 50 to 70% | Cc1cc(Cl)cc(-c2ncnn3cc(CN4C(=O)C5C(C4=O)C5(C)C)cc23)c1OCC1(C)CCCNC1 (single isomer, unassigned) [Example 74, 3-((4-(5-chloro-3-methyl-2-((3-methylpiperidin-3-yl)methoxy)phenyl)pyrrolo[2,1-f][1,2,4]triazin-6-yl)methyl)-6,6-dimethyl-3-azabicyclo[3.1.0]hexane-2,4-dione hydrochloride]
3 | 20 to 49% | Cc1cc(Cl)cc(-c2ncnn3cc(CN4C(=O)C5C(C4=O)C5(C)C)cc23)c1O[C@@H]1CC[C@@H](C)NC1 (stereo partly drawn) [Example 3, 3-((4-(5-chloro-3-methyl-2-(((3R,6R)-6-methylpiperidin-3-yl)oxy)phenyl)pyrrolo[2,1-f][1,2,4]triazin-6-yl)methyl)-6,6-dimethyl-3-azabicyclo[3.1.0]hexane-2,4-dione hydrochloride]
4 | 50 to 70% | Cc1cc(Cl)cc(-c2ncnn3cc(CN4C(=O)C5C(C4=O)C5(C)C)cc23)c1OC1CCNCC1 (stereo not shown) [Example 4, 3-((4-(5-chloro-3-methyl-2-(piperidin-4-yloxy)phenyl)pyrrolo[2,1-f][1,2,4]triazin-6-yl)methyl)-6,6-dimethyl-3-azabicyclo[3.1.0]hexane-2,4-dione hydrochloride]
5 | 20 to 49% | CC1(C)C2C(=O)N(Cc3cc4c(-c5cc(C(F)(F)F)cc6ccn(C7CCNC7)c56)ncnn4c3)C(=O)C21 (stereo not shown) [Example 5, 6,6-dimethyl-3-((4-(1-(pyrrolidin-3-yl)-5-(trifluoromethyl)-1H-indol-7-yl)pyrrolo[2,1-f][1,2,4]triazin-6-yl)methyl)-3-azabicyclo[3.1.0]hexane-2,4-dione 2,2,2-trifluoroacetate]
6 | < 20% | Cc1cc(Cl)cc(-c2ncnn3cc(CN4C(=O)C5C(C4=O)C5(C)C)cc23)c1O[C@@H]1CN[C@H](C(=O)O)C1 (stereo partly drawn) [Example 7, (2S,4S)-4-(4-chloro-2-(6-((6,6-dimethyl-2,4-dioxo-3-azabicyclo[3.1.0]hexan-3-yl)methyl)pyrrolo[2,1-f][1,2,4]triazin-4-yl)-6-methylphenoxy)pyrrolidine-2-carboxylic acid hydrochloride]
7 | 20 to 49% | Cc1cc(Cl)cc(-c2ncnn3cc(CN4C(=O)C5C(C4=O)C5(C)C)cc23)c1C(=O)N1CC(F)(F)C1 (stereo not shown) [Example 8, 3-((4-(5-chloro-2-(3,3-difluoroazetidine-1-carbonyl)-3-methylphenyl)pyrrolo[2,1-f][1,2,4]triazin-6-yl)methyl)-6,6-dimethyl-3-azabicyclo[3.1.0]hexane-2,4-dione hydrochloride]
8 | 50 to 70% | Cc1cc(Cl)cc(-c2ncnn3cc(CN4C(=O)C5C(C4=O)C5(C)C)cc23)c1OCCN (stereo not shown) [Example 9, 3-((4-(2-(2-aminoethoxy)-5-chloro-3-methylphenyl)pyrrolo[2,1-f][1,2,4]triazin-6-yl)methyl)-6,6-dimethyl-3-azabicyclo[3.1.0]hexane-2,4-dione hydrochloride]
9 | 50 to 70% | Cc1cc(Cl)cc(-c2ncnn3cc(CN4C(=O)C5C(C4=O)C5(C)C)c(C)c23)c1O[C@H]1CCCNC1 (stereo partly drawn) [Example 12, 3-((4-(5-chloro-3-methyl-2-(((S)-piperidin-3-yl)oxy)phenyl)-5-methylpyrrolo[2,1-f][1,2,4]triazin-6-yl)methyl)-6,6-dimethyl-3-azabicyclo[3.1.0]hexane-2,4-dione hydrochloride]
10 | < 20% | Cc1cc(Cl)cc(-c2ncnn3cc(CO)cc23)c1O[C@H]1CCCNC1 [Example 17, (S)-(4-(5-chloro-3-methyl-2-(piperidin-3-yloxy)phenyl)pyrrolo[2,1-f][1,2,4]triazin-6-yl)methanol hydrochloride]
11 | 20 to 49% | Cc1cc(Cl)cc(-c2ncnn3cc(CN4C(=O)C5C(C4=O)C5(C)C)cc23)c1O[C@@H]1CN[C@@H](C)C1 (stereo partly drawn) [Example 20, 3-((4-(5-chloro-3-methyl-2-(((3S,5S)-5-methylpyrrolidin-3-yl)oxy)phenyl)pyrrolo[2,1-f][1,2,4]triazin-6-yl)methyl)-6,6-dimethyl-3-azabicyclo[3.1.0]hexane-2,4-dione hydrochloride]

Continued, molecule first:

Row | SMILES | inhibition at 1 µM
12 | CN1CCOC(Cc2c(F)cc(Cl)cc2-c2ncnn3cc(Cn4c(=O)ccn(C)c4=O)cc23)C1 (racemic) [Example 103, 3-((4-(5-chloro-3-fluoro-2-((4-methylmorpholin-2-yl)methyl)phenyl)pyrrolo[2,1-f][1,2,4]triazin-6-yl)methyl)-1-methylpyrimidine-2,4(1H,3H)-dione hydrochloride] | 20 to 49%
13 | O=C1CN2CCC[C@H]2C(=O)N1Cc1cc2c(-c3cc(Cl)cc4ccn(C[C@@H]5CNCCO5)c34)ncnn2c1 (single isomer, unassigned) [Example 31, dihydrochloride] | 50 to 70%
14 | Cc1cc(Cl)cc(-c2ncnn3cc(Cn4cc(F)c(=O)n(C)c4=O)cc23)c1C[C@@H]1CNCCO1 (single isomer, unassigned) [Example 98, hydrochloride] | < 20%
15 | Cc1cc(Cl)cc(-c2ncnn3cc(CN4C(=O)CN(C)C4=O)cc23)c1C[C@@H]1CNCCO1 (single isomer, unassigned) [Example 99, hydrochloride] | > 70%
16 | Cc1cc(Cl)cc(-c2ncnn3cc(Cn4c(=O)ccn(C)c4=O)cc23)c1C[C@H]1CNCCO1 (single isomer, unassigned) [Example 100, hydrochloride] | 20 to 49%
17 | C[C@H]1CNCC(Cc2c(F)cc(Cl)cc2-c2ncnn3cc(CN4C(=O)CN(C)CC4=O)cc23)O1 (single isomer, unassigned) [Example 119, hydrochloride] | 20 to 49%
18 | C[C@H]1CNCC(Cc2c(F)cc(Cl)cc2-c2ncnn3cc(Cn4c(=O)ccn(C)c4=O)cc23)O1 (single isomer, unassigned) [Example 120, hydrochloride] | > 70%
19 | Cc1cc(Cl)cc(-c2ncnn3cc(Cn4c(=O)cc[nH]c4=O)cc23)c1CC1CNC[C@H](C)O1 (single isomer, unassigned) [Example 121, dihydrochloride] | 50 to 70%
20 | Cc1cc(Cl)cc(-c2ncnn3cc(Cn4c(=O)ccn(CC(=O)O)c4=O)cc23)c1C[C@@H]1CNCCO1 (single isomer, unassigned) [Example 125, hydrochloride] | 20 to 49%
21 | CCOC(=O)c1cc2c(-c3cc(Cl)cc(C)c3O[C@H]3CCCNC3)ncnn2c1 [Example 15, ethyl (S)-4-(5-chloro-3-methyl-2-(piperidin-3-yloxy)phenyl)pyrrolo[2,1-f][1,2,4]triazine-6-carboxylate hydrochloride] | 20 to 49%
22 | Cc1cc(Cl)cc(-c2ncnn3cc(C(=O)O)cc23)c1O[C@H]1CCCNC1 [Example 16, (S)-4-(5-chloro-3-methyl-2-(piperidin-3-yloxy)phenyl)pyrrolo[2,1-f][1,2,4]triazine-6-carboxylic acid hydrochloride] | < 20%
23 | Cc1cc(Cl)cc(-c2ncnn3cc(C(N)=O)cc23)c1O[C@H]1CCCNC1 [Example 18, (S)-4-(5-chloro-3-methyl-2-(piperidin-3-yloxy)phenyl)pyrrolo[2,1-f][1,2,4]triazine-6-carboxamide hydrochloride] | < 20%
24 | CC1(C)C2C(=O)N(Cc3cc4c(-c5cc(C(F)(F)F)cc6ccn(CC7(O)CCNCC7)c56)ncnn4c3)C(=O)C21 (stereo not shown) [Example 19, 3-((4-(1-((4-hydroxypiperidin-4-yl)methyl)-5-(trifluoromethyl)-1H-indol-7-yl)pyrrolo[2,1-f][1,2,4]triazin-6-yl)methyl)-6,6-dimethyl-3-azabicyclo[3.1.0]hexane-2,4-dione hydrochloride] | 50 to 70%

same assay, conditions: 1 μM of the test compound; given where IC50 has not been determined yet; mean of two repetitions; hydrochloride, 1 µM

Row | USP7 % inhibition | SMILES
25 | B* (B*: 50-70% inhibition) | Cc1cc(Cl)cc(-c2ncnn3cc(CN4C(=O)C5C(C4=O)C5(C)C)cc23)c1OC(C)C1CCNCC1.Cl (single isomer, unassigned) [Example 56, 3-((4-(5-chloro-3-methyl-2-(1-(piperidin-4-yl)ethoxy)phenyl)pyrrolo[2,1-f][1,2,4]triazin-6-yl)methyl)-6,6-dimethyl-3-azabicyclo[3.1.0]hexane-2,4-dione hydrochloride]
26 | C* (C*: 20-49% inhibition) | Cc1cc(Cl)cc(-c2ncnn3cc(CN4C(=O)C5C(C4=O)C5(C)C)cc23)c1OC(C)C1CCNCC1.Cl (single isomer, unassigned) [Example 57, 3-((4-(5-chloro-3-methyl-2-(1-(piperidin-4-yl)ethoxy)phenyl)pyrrolo[2,1-f][1,2,4]triazin-6-yl)methyl)-6,6-dimethyl-3-azabicyclo[3.1.0]hexane-2,4-dione hydrochloride]
27 | B* (B*: 50-70% inhibition) | Cc1cc(Cl)cc(-c2ncnn3cc(CN4C(=O)C5C(C4=O)C5(C)C)cc23)c1OC(C)[C@@H]1CNCCO1.Cl (single isomer, unassigned) [Example 76]
28 | D* (D*: <20% inhibition) | Cc1cc(Cl)cc(-c2ncnn3cc(CN4C(=O)C5C(C4=O)C5(C)C)cc23)c1OC(C)[C@@H]1CNCCO1.Cl (single isomer, unassigned) [Example 77]
